The test system of one data set is wild type mice. As to conditions: T3-treated wild type mice; cited from earlier work.
Data set [1] is described as follows: Effect of DITPA on removal of gastrostomy tube (G-tube). Type of data set: in vivo, human. As to conditions: one child who started DITPA while having a G-tube.
The nature of data set [2]: T3 and T4 concentration in humans with MCT8 deficiency. Type of data set: in vivo.
Data set [3] relates to MCT8-deficient (knockout) mice (Mct8KO). As to conditions: cited from earlier work.
Data set [4] deals with MCT8-mutant (mct82/2) larvae. The conditions noted are these: cited from earlier work.
The test system of data set [5] is MCT8 mutant (mct8−/−) zebrafish. The conditions noted are these: cited from earlier work.
For data set [6] the following is noted: human, in vivo; cited from earlier work.

For the compound `N[C@@H](Cc1cc(I)c(Oc2ccc(O)c(I)c2)c(I)c1)C(=O)O` [T3, triiodothyronine], in the data set with wild type mice, the “TEE (total energy expenditure)” value is “mice showed increased food intake and TEE, similar to MCT8KO mice”; the food intake result was “mice showed increased food intake and TEE, similar to MCT8KO mice”.

Take `O=C(O)CCc1cc(I)c(Oc2ccc(O)cc2)c(I)c1` [DITPA, 3,5-diiodothyropropionic acid]: in data set [1], the G-tube entry is recorded as “removed” and the body weight result is reported as “gained weight”. Also, in data set [2], the T3 concentration entry is “reduction” and the T4 concentration entry is “increase”. For the same compound, in data set [3], the TH deficit entry was “corrects the TH deficit”; the “analysis of TH target genes: thyrotoxic state in the liver” value was “target genes revealed amelioration of the thyrotoxic state in the liver”; the “measurements and other parameters of TH action” value is “SRW101 normalized all measurements and other parameters of TH”; the “thyrotoxic effect in the liver” value is reported as “without causing”. For the same compound, the “myelin and axon outgrowth deficiencies” value in data set [4] was “restored the myelin and axon outgrowth deficiencies in mct82/2 larvae”. Besides, the “hypomyelination in the CNS” value in data set [5] was “TH analogs partially rescued the hypomyelination in the CNS of MCT8”.

On to `O=C(O)Cc1cc(I)c(Oc2ccc(O)c(I)c2)c(I)c1` [TRIAC, triiodothyroacetic acid], for which the “effects in pediatric subjects” value in data set [6] is “analog Triac has also been studied in pediatric subjects with positive”.

(Values after patent US20240009156A1, “METHODS AND FORMULATIONS FOR PRENATAL TREATMENT OF ALLAN-HERNDON-DUDLEY SYNDROME” (PriZm, LLC, priority 2022, published 2024).)
